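Each compound was tested at five concentrations against cells in 96-well plates for 48 hours. TGI denotes the concentration required for complete inhibition of growth.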
How the values were obtained:
Test in all cases: growth of human tumour cells (NCI), 48 h
DMS 114 small cell lung = system: DMS 114 small cell lung
HT29 colon = system: HT29 colon
SF-268 CNS = system: SF-268 CNS
HL-60(TB) leukemia = system: HL-60(TB) leukemia
XF 498 CNS = system: XF 498 CNS
A549 NSCLC = system: A549 NSCLC
K-562 leukemia = system: K-562 leukemia
DMS 273 small cell lung = system: DMS 273 small cell lung
SK-MEL-2 melanoma = system: SK-MEL-2 melanoma
CAKI-1 renal = system: CAKI-1 renal
OVCAR-3 ovarian = system: OVCAR-3 ovarian
HCT-15 colon = system: HCT-15 colon
NCI-H522 lung = system: NCI-H522 lung
SK-OV-3 ovarian = system: SK-OV-3 ovarian
SNB-78 CNS = system: SNB-78 CNS
HOP-18 NSCLC = system: HOP-18 NSCLC
M19-MEL melanoma = system: M19-MEL melanoma
HOP-62 NSCLC = system: HOP-62 NSCLC
SK-MEL-28 melanoma = system: SK-MEL-28 melanoma
HCC-2998 colon = system: HCC-2998 colon
DLD-1 colon = system: DLD-1 colon
UO-31 renal = system: UO-31 renal
ACHN renal = system: ACHN renal
OVCAR-8 ovarian = system: OVCAR-8 ovarian
SF-295 CNS = system: SF-295 CNS
SF-539 CNS = system: SF-539 CNS
CCRF-CEM leukemia = system: CCRF-CEM leukemia
M14 melanoma = system: M14 melanoma
COLO 205 colon = system: COLO 205 colon
RXF 393 renal = system: RXF 393 renal
EKVX NSCLC = system: EKVX NSCLC
UACC-257 melanoma = system: UACC-257 melanoma
SW-620 colon = system: SW-620 colon
NCI-H460 lung = system: NCI-H460 lung
LXFL 529 NSCLC = system: LXFL 529 NSCLC
UACC-62 melanoma = system: UACC-62 melanoma
OVCAR-4 ovarian = system: OVCAR-4 ovarian
SNB-75 CNS = system: SNB-75 CNS
MOLT-4 leukemia = system: MOLT-4 leukemia
NCI-H23 lung = system: NCI-H23 lung
TK-10 renal = system: TK-10 renal
KM20L2 colon = system: KM20L2 colon
SNB-19 CNS = system: SNB-19 CNS
HCT-116 colon = system: HCT-116 colon
IGROV1 ovarian = system: IGROV1 ovarian
SK-MEL-5 melanoma = system: SK-MEL-5 melanoma
A498 renal = system: A498 renal
MALME-3M melanoma = system: MALME-3M melanoma
U251 CNS = system: U251 CNS
KM12 colon = system: KM12 colon
RPMI-8226 leukemia = system: RPMI-8226 leukemia
786-0 renal = system: 786-0 renal
MCF7 breast = system: MCF7 breast
PC-3 prostate = system: PC-3 prostate
NCI/ADR-RES ovarian = system: NCI/ADR-RES ovarian
MDA-MB-435 = system: MDA-MB-435
BT-549 breast = system: BT-549 breast
HS 578T breast = system: HS 578T breast
OVCAR-5 ovarian = system: OVCAR-5 ovarian
T-47D breast = system: T-47D breast
SR leukemia = system: SR leukemia
MDA-N = system: MDA-N
DU-145 prostate = system: DU-145 prostate
LOX IMVI melanoma = system: LOX IMVI melanoma
SN12C renal = system: SN12C renal
NCI-H226 lung = system: NCI-H226 lung
HOP-92 NSCLC = system: HOP-92 NSCLC
MDA-MB-231 breast = system: MDA-MB-231 breast

Measured: TGI

C[N+](C)(C)CCC(=O)CC[N+](C)(C)C
42.9 µM: SF-268 CNS | HCT-15 colon
31.6 µM: HT29 colon
34.5 µM: SF-295 CNS
50.1 µM: SK-MEL-28 melanoma
73.3 µM: SNB-75 CNS
33.7 µM: HCT-116 colon
31.8 µM: HOP-18 NSCLC | COLO 205 colon
66.1 µM: SK-MEL-2 melanoma
21.6 µM: RPMI-8226 leukemia
35.9 µM: UACC-257 melanoma
47.6 µM: MALME-3M melanoma
76.9 µM: NCI-H460 lung
63.6 µM: DMS 273 small cell lung
44 µM: OVCAR-8 ovarian
50.8 µM: SNB-78 CNS
31.3 µM: ACHN renal
55.4 µM: KM20L2 colon
46.5 µM: 786-0 renal
35.4 µM: SW-620 colon
30.4 µM: LXFL 529 NSCLC
34.2 µM: M14 melanoma
44.2 µM: DMS 114 small cell lung
36 µM: RXF 393 renal
> 100 µM: A549 NSCLC | SK-OV-3 ovarian | HOP-62 NSCLC | UO-31 renal | EKVX NSCLC | SNB-19 CNS | IGROV1 ovarian | SK-MEL-5 melanoma | A498 renal | U251 CNS
55.9 µM: NCI-H23 lung
34.6 µM: TK-10 renal
54.5 µM: M19-MEL melanoma
41 µM: SF-539 CNS
53.9 µM: HCC-2998 colon
24.3 µM: K-562 leukemia
33.9 µM: OVCAR-3 ovarian
7.42 µM: CCRF-CEM leukemia
34.8 µM: OVCAR-4 ovarian
17.5 µM: HL-60(TB) leukemia
29.4 µM: NCI-H522 lung
42.2 µM: KM12 colon
29.2 µM: CAKI-1 renal
19.5 µM: MOLT-4 leukemia
39.2 µM: DLD-1 colon
41.4 µM: UACC-62 melanoma
46.6 µM: XF 498 CNS

O=C(Nc1ccccc1F)c1cc2ccc(O)cc2oc1=Nc1cccc(F)c1
44.7 µM: KM12 colon
22.9 µM: LOX IMVI melanoma
33.7 µM: A549 NSCLC
33.1 µM: OVCAR-3 ovarian
43.8 µM: A498 renal
29.3 µM: UO-31 renal
29.5 µM: ACHN renal
24.8 µM: HCT-116 colon
65.6 µM: UACC-257 melanoma
> 100 µM: HT29 colon | NCI-H522 lung | SK-OV-3 ovarian | SNB-19 CNS | RPMI-8226 leukemia
84.4 µM: HS 578T breast
57.3 µM: NCI-H460 lung
32.6 µM: SW-620 colon
40.5 µM: DU-145 prostate
95.1 µM: MCF7 breast
15.3 µM: CCRF-CEM leukemia
23.8 µM: OVCAR-8 ovarian
18.5 µM: SF-295 CNS
38.6 µM: HOP-62 NSCLC | M14 melanoma
98.7 µM: MALME-3M melanoma
27 µM: HL-60(TB) leukemia
5.36 µM: NCI-H23 lung
14.6 µM: IGROV1 ovarian
29.8 µM: U251 CNS
39.4 µM: BT-549 breast
39.3 µM: T-47D breast
30 µM: 786-0 renal
29.6 µM: UACC-62 melanoma
35.2 µM: EKVX NSCLC
42.7 µM: SF-539 CNS
43.3 µM: MDA-N
71 µM: OVCAR-5 ovarian
44.6 µM: MOLT-4 leukemia
48 µM: PC-3 prostate
38.7 µM: SK-MEL-28 melanoma
62.6 µM: SK-MEL-2 melanoma
49.2 µM: SR leukemia
53.6 µM: OVCAR-4 ovarian
43 µM: NCI/ADR-RES ovarian
79.1 µM: SF-268 CNS
24.4 µM: HCT-15 colon
79.3 µM: K-562 leukemia
33.8 µM: HCC-2998 colon
18 µM: SK-MEL-5 melanoma
40.6 µM: CAKI-1 renal
35.7 µM: MDA-MB-435
77.3 µM: COLO 205 colon

C/C=C/C(C#N)O[Si](C)(C)C (stereo unspecified)
not listed: K-562 leukemia | CCRF-CEM leukemia | RPMI-8226 leukemia | MCF7 breast | PC-3 prostate | NCI/ADR-RES ovarian | MDA-MB-435 | BT-549 breast | HS 578T breast | T-47D breast | SR leukemia | MDA-N | DU-145 prostate | LOX IMVI melanoma | MDA-MB-231 breast
> 100 µM: all other assays above

Cn1nc2ccc([N+](=O)[O-])c(Cn3nnc4ccccc43)c2n1
not listed: DMS 114 small cell lung | XF 498 CNS | DMS 273 small cell lung | NCI-H522 lung | SNB-78 CNS | HOP-18 NSCLC | M19-MEL melanoma | DLD-1 colon | LXFL 529 NSCLC | KM20L2 colon | PC-3 prostate | SR leukemia
> 100 µM: all other assays above

CN(C)c1cc2ccccc2oc1=O
not listed: DMS 114 small cell lung | XF 498 CNS | DMS 273 small cell lung | SK-OV-3 ovarian | SNB-78 CNS | HOP-18 NSCLC | M19-MEL melanoma | DLD-1 colon | LXFL 529 NSCLC | KM20L2 colon
> 100 µM: all other assays above

O=C(O)CN(CC(=O)O)C1CCCCC1N1CC(=O)OC(=O)C1 (stereo unspecified)
95.5 µM: SNB-75 CNS
not listed: DMS 114 small cell lung | XF 498 CNS | DMS 273 small cell lung | SNB-78 CNS | HOP-18 NSCLC | M19-MEL melanoma | DLD-1 colon | RXF 393 renal | LXFL 529 NSCLC | KM20L2 colon
> 100 µM: all other assays above

N#CN1C2CCC1CC(=O)C2
not listed: DMS 114 small cell lung | XF 498 CNS | DMS 273 small cell lung | SNB-78 CNS | HOP-18 NSCLC | M19-MEL melanoma | DLD-1 colon | RXF 393 renal | LXFL 529 NSCLC | KM20L2 colon | NCI-H226 lung
> 100 µM: all other assays above
